Data from ChEMBL document CHEMBL1157966, “Synthesis of salvinorin A analogues as opioid receptor probes” (J Nat Prod, 2006).
pKi: −log10 of the molar value.

Assays:
Mu-type opioid receptor = Mu-type opioid receptor (Homo sapiens, UniProt P35372); assay: Displacement of [125]OXY from mu opioid receptor
[1] = target: Delta-type opioid receptor (Homo sapiens, UniProt P41143); assay: Displacement of [125]OXY from delta opioid receptor
[2] = target: Kappa-type opioid receptor (Homo sapiens, UniProt P41145); assay: Displacement of [125]OXY from kappa opioid receptor
[3] = Selectivity ratio of Ki for mu opioid receptor to kappa opioid receptor
[4] = Selectivity ratio of Ki for delta opioid receptor to kappa opioid receptor

Chain of Kappa-type opioid receptor (P41145 whole entry): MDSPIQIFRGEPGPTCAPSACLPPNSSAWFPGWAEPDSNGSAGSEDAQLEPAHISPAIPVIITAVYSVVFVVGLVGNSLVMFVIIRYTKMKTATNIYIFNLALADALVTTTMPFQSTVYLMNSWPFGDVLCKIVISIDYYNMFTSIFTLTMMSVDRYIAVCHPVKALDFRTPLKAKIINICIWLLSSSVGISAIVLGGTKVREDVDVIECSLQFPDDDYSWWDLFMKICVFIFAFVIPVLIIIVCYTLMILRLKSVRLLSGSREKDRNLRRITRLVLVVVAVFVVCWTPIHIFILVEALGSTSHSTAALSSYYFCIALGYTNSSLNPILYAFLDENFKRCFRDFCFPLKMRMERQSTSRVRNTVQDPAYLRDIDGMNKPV
Chain of Delta-type opioid receptor (P41143 whole entry): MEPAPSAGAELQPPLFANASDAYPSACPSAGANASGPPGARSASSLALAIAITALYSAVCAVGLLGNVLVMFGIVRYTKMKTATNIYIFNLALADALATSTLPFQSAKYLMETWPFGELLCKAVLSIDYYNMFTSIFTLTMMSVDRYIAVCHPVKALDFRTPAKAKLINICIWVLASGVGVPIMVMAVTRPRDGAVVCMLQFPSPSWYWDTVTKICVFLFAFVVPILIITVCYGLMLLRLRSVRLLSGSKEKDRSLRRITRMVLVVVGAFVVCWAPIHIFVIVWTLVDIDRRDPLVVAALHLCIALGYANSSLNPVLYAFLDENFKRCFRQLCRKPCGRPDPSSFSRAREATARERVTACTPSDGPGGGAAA
Chain of Mu-type opioid receptor (P35372 whole entry): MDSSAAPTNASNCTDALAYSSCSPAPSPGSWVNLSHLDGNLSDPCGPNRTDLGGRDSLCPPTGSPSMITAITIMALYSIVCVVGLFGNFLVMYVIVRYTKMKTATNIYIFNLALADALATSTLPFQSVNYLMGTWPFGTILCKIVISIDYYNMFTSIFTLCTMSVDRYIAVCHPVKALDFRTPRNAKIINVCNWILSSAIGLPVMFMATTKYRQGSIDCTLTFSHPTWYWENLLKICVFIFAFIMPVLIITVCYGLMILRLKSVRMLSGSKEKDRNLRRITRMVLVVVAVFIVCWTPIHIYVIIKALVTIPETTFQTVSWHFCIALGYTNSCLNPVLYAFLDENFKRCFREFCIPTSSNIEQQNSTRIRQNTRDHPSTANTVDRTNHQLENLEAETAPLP

SMILES | pKi (Mu-type opioid receptor) | pKi [1] | pKi [2] | Ratio Ki [3] | Ratio Ki [4]
CCCCCC(=O)O[C@H]1C[C@@H](C(=O)OC)[C@]2(C)CCC3C(=O)O[C@H](c4ccoc4)C[C@]3(C)[C@H]2C1=O (single isomer, unassigned) | 6.28 | 5.37 | 7.15 | 7 | 61
CCC(=O)O[C@H]1C[C@@H](C(=O)OC)[C@]2(C)CC[C@H]3C(=O)O[C@H](c4ccoc4)C[C@]3(C)[C@H]2C1=O |  |  |  | > 560 | 2730
CCCCC(=O)O[C@H]1C[C@@H](C(=O)OC)[C@]2(C)CCC3C(=O)O[C@H](c4ccoc4)C[C@]3(C)[C@H]2C1=O (single isomer, unassigned) | 6.51 | 5.40 | 7.82 | 21 | 265
COC(=O)[C@@H]1C[C@H](OC(=O)c2ccccc2Br)C(=O)[C@H]2[C@@]1(C)CCC1C(=O)O[C@H](c3ccoc3)C[C@@]12C (single isomer, unassigned) | 6.96 | < 5.00 | 7.05 | 1.2 | > 100
COC(=O)[C@@H]1C[C@H](OC(=O)c2ccc(Br)cc2)C(=O)[C@H]2[C@@]1(C)CCC1C(=O)O[C@H](c3ccoc3)C[C@@]12C (single isomer, unassigned) | 8.00 | 5.85 | 6.13 | 0.01 | 2
COC(=O)[C@@H]1C[C@H](OC(=O)CCc2ccccc2)C(=O)[C@H]2[C@@]1(C)CC[C@H]1C(=O)O[C@H](c3ccoc3)C[C@]21C | 6.55 | 5.03 | 6.74 | 2 | 52
COC(=O)[C@@H]1C[C@H](OC(=O)c2cccs2)C(=O)[C@H]2[C@@]1(C)CC[C@H]1C(=O)O[C@H](c3ccoc3)C[C@]21C | 8.00 | 5.86 | 6.59 | 0.04 | 5
COC(=O)[C@@H]1C[C@H](OC(=O)Cc2ccccc2)C(=O)[C@H]2[C@@]1(C)CCC1C(=O)O[C@H](c3ccoc3)C[C@@]12C (single isomer, unassigned) | 5.96 | < 5.00 | 6.54 | 4 | > 30
COC(=O)[C@@H]1C[C@H](OC(=O)c2ccccc2)C(=O)[C@H]2[C@@]1(C)CC[C@H]1C(=O)O[C@H](c3ccoc3)C[C@]21C |  |  |  | 0.13 | 12
COC(=O)[C@@H]1C[C@H](OC(=O)c2cccc(Br)c2)C(=O)[C@H]2[C@@]1(C)CCC1C(=O)O[C@H](c3ccoc3)C[C@@]12C (single isomer, unassigned) | 6.96 | < 5.00 | 7.15 | 1.6 | > 100
COC(=O)[C@@H]1C[C@H](OS(=O)(=O)c2ccc(C)cc2)C(=O)[C@H]2[C@@]1(C)CCC1C(=O)O[C@H](c3ccoc3)C[C@@]12C (single isomer, unassigned) | 6.66 | 5.43 | 7.30 | 4 | 74
COC(=O)[C@@H]1C[C@H](OS(=O)(=O)c2ccccc2)C(=O)[C@H]2[C@@]1(C)CCC1C(=O)O[C@H](c3ccoc3)C[C@@]12C (single isomer, unassigned) | < 5.00 | < 5.00 | 7.22 | > 150 | > 150
COC(=O)[C@@H]1C[C@H](OC(=O)CNC(=O)OC(C)(C)C)C(=O)[C@H]2[C@@]1(C)CCC1C(=O)O[C@H](c3ccoc3)C[C@@]12C (single isomer, unassigned) | 5.25 | < 5.00 | 7.05 | 63 | > 100
CCCC(=O)O[C@H]1C[C@@H](C(=O)OC)[C@]2(C)CCC3C(=O)O[C@H](c4ccoc4)C[C@]3(C)[C@H]2C1=O (single isomer, unassigned) | 6.28 | 5.39 | 8.40 | 130 | 1010
